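Briefly, cells in 96-well plates were exposed to five compound concentrations for 48 h, and endpoints were estimated by linear interpolation. TGI: total growth inhibition.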
What was measured:
Experiment in all cases: NCI tumour cell line growth inhibition, 48 h
A498 renal = system: A498 renal
HCT-15 colon = system: HCT-15 colon
HL-60(TB) leukemia = system: HL-60(TB) leukemia
HOP-92 NSCLC = system: HOP-92 NSCLC
MDA-MB-435 = system: MDA-MB-435
SNB-19 CNS = system: SNB-19 CNS
SNB-75 CNS = system: SNB-75 CNS
UO-31 renal = system: UO-31 renal

Compound: O=C1CSC(c2cccs2)N1c1nc2cc3sc(N4C(=O)CSC4c4cccs4)nc3cc2s1 (centres undefined)
- TGI (A498 renal): > 50 µM
- TGI (HCT-15 colon): > 50 µM
- TGI (HL-60(TB) leukemia): > 50 µM
- TGI (HOP-92 NSCLC): > 50 µM
- TGI (MDA-MB-435): > 50 µM
- TGI (SNB-19 CNS): > 50 µM
- TGI (SNB-75 CNS): > 50 µM
- TGI (UO-31 renal): > 50 µM

Compound: Nc1ccc2[nH]c(-c3cccc(Cl)c3)cc(=O)c2c1
- TGI (HCT-15 colon): > 100 µM
- TGI (HOP-92 NSCLC): 9.69 µM
- TGI (MDA-MB-435): 2.39 µM
- TGI (SNB-19 CNS): > 100 µM
- TGI (SNB-75 CNS): > 100 µM

Compound: O=C1C=CC(=O)c2c(O)c(NCCc3ccc(O)cc3)c(Cl)c(O)c21
- TGI (HCT-15 colon): > 10 µM
- TGI (HL-60(TB) leukemia): > 10 µM
- TGI (HOP-92 NSCLC): > 10 µM
- TGI (MDA-MB-435): > 10 µM
- TGI (SNB-19 CNS): > 10 µM
- TGI (SNB-75 CNS): > 10 µM

Compound: CNC(=O)N(CCC#N)[C@H]1CCCC[C@@H]1N(C(=O)NC)c1ccccc1
- TGI (HCT-15 colon): > 100 µM
- TGI (HOP-92 NSCLC): > 100 µM
- TGI (MDA-MB-435): > 100 µM
- TGI (SNB-19 CNS): > 100 µM
- TGI (SNB-75 CNS): > 100 µM
- TGI (UO-31 renal): > 100 µM

Compound: O=c1oc2cc(O)ccc2c(O)c1C(c1ccc(C(c2c(O)c3ccc(O)cc3oc2=O)c2c(O)c3ccc(O)cc3oc2=O)cc1)c1c(O)c2ccc(O)cc2oc1=O
- TGI (A498 renal): > 100 µM
- TGI (HCT-15 colon): > 100 µM
- TGI (HL-60(TB) leukemia): > 100 µM
- TGI (HOP-92 NSCLC): > 100 µM
- TGI (MDA-MB-435): > 100 µM
- TGI (SNB-75 CNS): > 100 µM
- TGI (UO-31 renal): > 100 µM

Compound: O=C(Cc1ccccc1)NN1C(=O)/C(=C\c2ccc([N+](=O)[O-])cc2)SC1=Nc1ccccc1
- TGI (A498 renal): > 100 µM
- TGI (HCT-15 colon): > 100 µM
- TGI (HOP-92 NSCLC): > 100 µM
- TGI (MDA-MB-435): > 100 µM
- TGI (SNB-19 CNS): > 100 µM
- TGI (SNB-75 CNS): > 100 µM
- TGI (UO-31 renal): > 100 µM

Compound: COc1ccc(-c2c(C#N)c(N)nc3c2CCS(=O)(=O)c2ccccc2-3)cc1
- TGI (A498 renal): > 100 µM
- TGI (HCT-15 colon): > 100 µM
- TGI (HL-60(TB) leukemia): > 100 µM
- TGI (HOP-92 NSCLC): > 100 µM
- TGI (MDA-MB-435): > 100 µM
- TGI (SNB-19 CNS): > 100 µM
- TGI (SNB-75 CNS): > 100 µM
- TGI (UO-31 renal): > 100 µM

Compound: c1ccc(/C(=N/Nc2ccccn2)c2ncccn2)cc1
- TGI (A498 renal): > 100 µM
- TGI (HCT-15 colon): > 100 µM
- TGI (HL-60(TB) leukemia): > 100 µM
- TGI (HOP-92 NSCLC): > 34.5 µM
- TGI (MDA-MB-435): > 100 µM
- TGI (SNB-19 CNS): > 100 µM
- TGI (SNB-75 CNS): 16.2 µM
- TGI (UO-31 renal): 6.27 µM

Compound: CCC(=O)Oc1c2ccsc2c(OC(=O)CC)c2ccsc12
- TGI (A498 renal): 15 µM
- TGI (HCT-15 colon): 1.07 µM
- TGI (HOP-92 NSCLC): 3.98 µM
- TGI (MDA-MB-435): 0.159 µM
- TGI (SNB-19 CNS): 1.58 µM
- TGI (SNB-75 CNS): 0.341 µM
- TGI (UO-31 renal): 1.45 µM

Compound: N#Cc1cc2c(cc1Cl)Sc1nccn1S2(=O)=O
- TGI (A498 renal): 33 µM
- TGI (HCT-15 colon): 3.28 µM
- TGI (HL-60(TB) leukemia): 16.6 µM
- TGI (HOP-92 NSCLC): 15.3 µM
- TGI (MDA-MB-435): 17.5 µM
- TGI (SNB-19 CNS): 24.6 µM
- TGI (SNB-75 CNS): 20.4 µM
- TGI (UO-31 renal): 10.7 µM

Compound: COc1cc(I)c2c3c1OC1C34CCN(C)C(C2)C4=CC(I)C1(OC)OC (centres undefined)
- TGI (A498 renal): 86.4 µM
- TGI (HCT-15 colon): 63.4 µM
- TGI (HL-60(TB) leukemia): 47.3 µM
- TGI (HOP-92 NSCLC): 45.6 µM
- TGI (MDA-MB-435): 33.8 µM
- TGI (SNB-19 CNS): 71.9 µM
- TGI (SNB-75 CNS): 31.2 µM
- TGI (UO-31 renal): 34.7 µM

Compound: C=c1c(OC)c(OC)c(O)c2c1=c1cc([N+](=O)[O-])cc(OC)c1=N2
- TGI (A498 renal): > 100 µM
- TGI (HCT-15 colon): > 100 µM
- TGI (HL-60(TB) leukemia): > 100 µM
- TGI (HOP-92 NSCLC): > 100 µM
- TGI (MDA-MB-435): > 100 µM
- TGI (SNB-19 CNS): > 100 µM
- TGI (SNB-75 CNS): > 100 µM
- TGI (UO-31 renal): > 100 µM

Compound: O=c1c(-c2ccc(Cl)cc2)nnc2n(Cc3ccccc3)c3ccccc3n12
- TGI (A498 renal): 69.5 µM
- TGI (HCT-15 colon): > 100 µM
- TGI (HL-60(TB) leukemia): > 100 µM
- TGI (HOP-92 NSCLC): 42.6 µM
- TGI (MDA-MB-435): > 100 µM
- TGI (SNB-19 CNS): 72 µM
- TGI (SNB-75 CNS): 44.9 µM
- TGI (UO-31 renal): > 100 µM

Compound: Nc1c(C(=O)c2ccc(Cl)cc2)[nH]c(NCc2ccccc2)c1C(=S)Nc1ccccc1
- TGI (A498 renal): 23 µM
- TGI (HCT-15 colon): 3.36 µM
- TGI (HL-60(TB) leukemia): 14 µM
- TGI (HOP-92 NSCLC): 9.02 µM
- TGI (MDA-MB-435): 3.14 µM
- TGI (SNB-19 CNS): 15.1 µM
- TGI (SNB-75 CNS): 3.33 µM
- TGI (UO-31 renal): 3.02 µM

Compound: CCOC(=O)/C(C#N)=N\Nc1ccc(-n2c(C)nc3ccccc3c2=O)cc1
- TGI (A498 renal): > 100 µM
- TGI (HCT-15 colon): > 100 µM
- TGI (HL-60(TB) leukemia): > 100 µM
- TGI (HOP-92 NSCLC): > 100 µM
- TGI (MDA-MB-435): > 100 µM
- TGI (SNB-19 CNS): > 100 µM
- TGI (SNB-75 CNS): > 100 µM
- TGI (UO-31 renal): > 100 µM

Compound: Brc1cccc(N=NN2CCCC2)c1
- TGI (A498 renal): > 100 µM
- TGI (HCT-15 colon): > 100 µM
- TGI (HL-60(TB) leukemia): > 100 µM
- TGI (HOP-92 NSCLC): > 100 µM
- TGI (MDA-MB-435): > 100 µM
- TGI (SNB-19 CNS): > 100 µM
- TGI (SNB-75 CNS): > 100 µM
- TGI (UO-31 renal): > 100 µM

Compound: Cn1c2ccccc2n2c(=O)c3cc([N+](=O)[O-])ccc3c(C#N)c12
- TGI (HCT-15 colon): > 100 µM
- TGI (HL-60(TB) leukemia): > 100 µM
- TGI (MDA-MB-435): > 100 µM
- TGI (SNB-19 CNS): > 100 µM
- TGI (SNB-75 CNS): > 100 µM
- TGI (UO-31 renal): > 100 µM

Compound: CC1S/C(=N/c2nnc(-c3ccccc3)o2)NC1=O (centres undefined)
- TGI (A498 renal): > 100 µM
- TGI (HCT-15 colon): > 100 µM
- TGI (HL-60(TB) leukemia): > 100 µM
- TGI (HOP-92 NSCLC): > 100 µM
- TGI (MDA-MB-435): > 100 µM
- TGI (SNB-19 CNS): > 100 µM
- TGI (UO-31 renal): > 100 µM

Compound: COc1ccc2c(c1)CN1C(=N2)CSC1c1ccccc1Cl (centres undefined)
- TGI (HCT-15 colon): 38.9 µM
- TGI (HL-60(TB) leukemia): 24.9 µM
- TGI (HOP-92 NSCLC): 31.2 µM
- TGI (MDA-MB-435): 39.9 µM
- TGI (SNB-19 CNS): > 100 µM
- TGI (SNB-75 CNS): 48.8 µM
- TGI (UO-31 renal): 38.3 µM

Compound: O=[N+]([O-])c1ccc(NC(=S)N=Nc2c(O)[nH]c3ccc(Br)cc23)cc1
- TGI (A498 renal): 17.2 µM
- TGI (HCT-15 colon): 12.9 µM
- TGI (HL-60(TB) leukemia): 7.09 µM
- TGI (HOP-92 NSCLC): 22.7 µM
- TGI (MDA-MB-435): 25.4 µM
- TGI (SNB-75 CNS): 30.7 µM

Compound: Cc1nn(-c2cc(Cl)ccc2[N+](=O)[O-])c(C)c1Cl
- TGI (A498 renal): > 100 µM
- TGI (HCT-15 colon): > 100 µM
- TGI (HL-60(TB) leukemia): > 100 µM
- TGI (MDA-MB-435): > 100 µM
- TGI (SNB-19 CNS): > 100 µM
- TGI (SNB-75 CNS): > 100 µM
- TGI (UO-31 renal): > 100 µM

Compound: CCNC(=O)C1CCCN1C(=O)C(CCCN=C(N)N)NC(=O)C(CC(C)C)NC(=O)C(Cc1c[nH]c2ccccc12)NC(=O)C(Cc1ccc(O)cc1)NC(=O)C(CO)NC(=O)C(Cc1c[nH]c2ccccc12)NC(=O)C(Cc1cnc[nH]1)NC(=O)C1CCC(=O)N1 (centres undefined)
- TGI (A498 renal): > 100 µM
- TGI (HCT-15 colon): > 100 µM
- TGI (HOP-92 NSCLC): > 100 µM
- TGI (MDA-MB-435): > 100 µM
- TGI (SNB-19 CNS): > 100 µM
- TGI (SNB-75 CNS): > 100 µM
- TGI (UO-31 renal): > 100 µM

Compound: CCN1CCC(O)(C(C(=O)O)c2ccccc2)CC1 (centres undefined)
- TGI (A498 renal): > 100 µM
- TGI (HCT-15 colon): > 100 µM
- TGI (HL-60(TB) leukemia): > 100 µM
- TGI (MDA-MB-435): > 100 µM
- TGI (SNB-19 CNS): > 100 µM
- TGI (SNB-75 CNS): > 100 µM
- TGI (UO-31 renal): > 100 µM

Compound: OC1(c2ccc(Cl)cc2)c2ccc3ccccc3c2C2=N[C@H]3CCCC[C@@H]3N21 (some centres undefined)
- TGI (A498 renal): 52.7 µM
- TGI (HCT-15 colon): 28.3 µM
- TGI (HL-60(TB) leukemia): > 100 µM
- TGI (HOP-92 NSCLC): 77.3 µM
- TGI (MDA-MB-435): > 100 µM
- TGI (SNB-19 CNS): > 100 µM
- TGI (UO-31 renal): > 100 µM

Compound: CC1(CNCc2ccccc2)CC(CCc2ccccc2)N(C(=O)c2ccc([N+](=O)[O-])cc2)C1Cc1ccc(O)cc1 (centres undefined)
- TGI (A498 renal): 26.7 µM
- TGI (HCT-15 colon): 26.3 µM
- TGI (HL-60(TB) leukemia): 54.4 µM
- TGI (HOP-92 NSCLC): 9.88 µM
- TGI (MDA-MB-435): 28.2 µM
- TGI (SNB-19 CNS): 29.1 µM
- TGI (UO-31 renal): 23.3 µM
